From BindingDB's records for doi:10.1021/jm950720u (Tohoku College of Pharmacy, 1996) come the findings set out here.

The test deals with T1, Aromatase (Homo sapiens, UniProt P11511).
T1 sequence (P11511 whole entry): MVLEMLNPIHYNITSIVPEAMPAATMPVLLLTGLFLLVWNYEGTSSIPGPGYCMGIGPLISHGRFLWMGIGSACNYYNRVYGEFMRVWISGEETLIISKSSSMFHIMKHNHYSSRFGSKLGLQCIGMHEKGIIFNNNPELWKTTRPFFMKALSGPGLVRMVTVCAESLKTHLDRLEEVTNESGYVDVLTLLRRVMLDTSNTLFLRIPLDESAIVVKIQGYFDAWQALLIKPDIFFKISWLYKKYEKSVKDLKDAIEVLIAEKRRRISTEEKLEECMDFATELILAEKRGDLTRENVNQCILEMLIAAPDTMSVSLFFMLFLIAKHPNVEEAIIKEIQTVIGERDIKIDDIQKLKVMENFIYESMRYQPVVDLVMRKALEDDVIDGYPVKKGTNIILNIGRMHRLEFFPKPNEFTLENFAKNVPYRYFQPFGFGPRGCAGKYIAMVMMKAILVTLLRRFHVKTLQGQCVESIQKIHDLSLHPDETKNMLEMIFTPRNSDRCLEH
In words: Aromatase Assay. To be noted: pH 7.5; 37 °C. How it is done:
The enzyme activity was assayed by measuring the 3H-labeled H2O formed from [1beta-3H] Androstenedione during aromatization. After incubation, the reaction was terminated by CHCl3 extraction and centrifugation. Aliquots of the water phase were assayed for the presence of 3H2O by counting using a liquid scintillation spectrometer.

Broadly, the IC50 is the concentration that inhibits the measured activity by half. High values mean lower potency, low ones higher potency. For orientation: Ki means the dissociation constant of the complex between target and ligand, obtained from inhibition or displacement. Lower therefore signals tighter binding. In the case of `C[C@]12CCC(=O)C=C1CCC1C2CC[C@]2(C)C(=O)CCC12` (stereo partly drawn) [[1beta-3H] androstenedione], half-maximal inhibition (IC50) required 300 nM and the affinity corresponds to a Ki of 20 nM.
